Data published in patent publication US5843937A (priority 1996, dated 1998).

Experiments:
[1] = tested on: U937 Cells; assay: Cytotoxicity of Invented Compounds Against U937 Cells; type: cell-based; settings: 3H-thymidine last 24 h
Experimental: Some of the new compounds were tested for their cytotoxicity against cancer cells. U937 cells were used to determine the IC50 values. The assay was set up in triplicate in 96 well flat bottom microtiter plates. All cells are seeded at 5×10^3 cells/well in RPMI-1640 plus 10% FCS. Drugs were added and the total volume was adjusted to 0.2 mL/well. Total incubation time was 48 h with the addition of ^3 H-thymidine for the last 24 h of incubation. The assay was harvested and counted with the packard Matrix 96 beta counter. The results were expressed as the percent growth inhibition calculated from the percent decrease in cpm of treated cells relative to the untreated controls.

[2] = prior compounds; experimental animals (CC-1065); cited from earlier work
[3] = tested on: B16 Melanoma; assay: Cytotoxicity of Invented Compounds Against B16 Melanoma; type: cell-based; settings: Mus musculus
[4] = tested on: human liver cancer HepG2 cells; assay: Cytotoxicity of Mab-YW-242 conjugates against liver cancer HepG2 cells (3H-thymidine incorporation); type: cell-based; settings: 1 h drug incubation, washed, overnight with 3H-thymidine, read-out: IC50 Values of the Mab-drug Conjugate
Experimental: Using such potent molecules for monoclonal antibody-drug conjugate has advantages over using low potency agents. The tumor specific antibody will carry these molecules specifically to tumor cells, thus enhancing the therapeutic efficacy of these compounds. The monoclonal antibody-drug conjugates are still very toxic to cancer cells. The Mab-YW-242 conjugates were tested in vitro against human liver cancer HepG2 cells. IC50 values for cell proliferation were determined by incorporation of ^3 H-thymidine.
The conjugates were tested in vitro against human liver cancer HepG2 cells. IC50 values for cell proliferation were determined by incorporation of ^3 H-thymidine. 4×10^4 of trypsinized cells in 0.1 mL of DMEM medium containing 10% of heat-inactivated FCS were added to each well of 96-well microtiter plates and incubated for 4 h at 37° C. to allow attachment of the cells. Drugs in 10 μL of PBS were added and incubated for 1 h at 37° C. Medium was removed and the cells were washed with PBS (0.2 mL). Fresh medium (0.1 mL) and ^3 H-thymidine (10 μL) were added. The cells were incubated overnight at 37° C. The cells were treated with trypsin-EDTA for 15 min at 37° C. and then harvested using a micromate 196 harvester. Radioactivity was counted and IC50 values were determined.

[5] = antitumor use; cited from earlier work
[6] = both in vitro and in experimental animals; cited from earlier work
[7] = tested on: double-stranded B-DNA; settings: cited from earlier work
[8] = Homo sapiens, U-937, 48 h incubation

For CC(=O)Nc1ccc2oc(C(=O)Nc3ccc4[nH]c(C(=O)N5CC6CC67C5=CC(=O)c5ccccc57)cc4c3)cc2c1 (stereo not shown) [YW-213, N^2-[[5-[[[5-(Acetamino)-1H-benzofuran-2-yl]carbonyl]amino]-1H-indol-2-yl]carbonyl]1,2,9,9a-tetrahydrocyclopropa[c]-benz[e]indol-4-one], the IC50 [1, 8] was 0.2 nM.

Molecule COC(=O)[C@H]1O[C@@H](OCCCC(=O)Nc2ccc3[nH]c(C(=O)N4CC(CCl)c5c4cc(O)c4ccccc54)cc3c2)[C@H](OC(C)=O)[C@@H](OC(C)=O)[C@@H]1OC(C)=O (stereo partly drawn) [YW-247, 3-[[5-[4-(Methyl 2,3,4-tri-O-acetyl-1-deoxy-b-D-glucuronate)butyramino]-1H-indol-2'-yl]carbonyl]-1-(chloromethyl)-5-hydroxy-1,2-dihydro-3H-benz[e]indole] has an IC50 [1, 8] of 1.4 nM.

For CCN(CC)c1ccc2cc(C(=O)Nc3ccc4[nH]c(C(=O)N5C[C@@H](CCl)c6c5cc(OC(=O)Nc5ccccc5)c5[nH]cc(C)c65)cc4c3)oc2c1 [U-80244], the delayed death [2] is listed as “do not cause delayed death”.

For COC(=O)[C@H]1O[C@@H](OCCCC(=O)Nc2ccc3[nH]c(C(=O)Nc4ccc5[nH]c(C(=O)N6CC(CCl)c7c6cc(O)c6ccccc76)cc5c4)cc3c2)[C@H](OC(C)=O)[C@@H](OC(C)=O)[C@@H]1OC(C)=O (stereo partly drawn) [YW-249, 3-[[5-[[5-[4-(Methyl 2,3,4-tri-O-acetyl-1-deoxy-b-D-glucuronate)butyramino]-1H-indol-2-ylcarbonyl]amino]-1H-indol-2-yl]carbony 1]-1-(chloromethyl)-5-hydroxy-1,2-dihydro-3H-benz[e]indole], the IC50 [1, 8] was 0.55 nM.

CC(=O)Nc1cc(C(=O)N2CC(CCl)c3c2cc(O)c2ccccc32)n(C)c1 (stereo not shown) [YW-161, 3-[(4-Acetamino-1-methylpyrrole-2-yl)carbony:L]-1-(chloromethyl)-5-hydroxy-1,2-dihydro-3H-benz[e]indole] showed an IC50 ([1]; 48 h incubation) of 5 nM.

In the case of Nc1ccc2[nH]c(C(=O)N3CC(CCl)c4c3cc(O)c3ccccc43)cc2c1 (stereo not shown) [YW-242, 3-[(5-Amino-1H-indol-2'-yl)carbonyl]-1-(chloromethyl)-5-hydroxy-1,2-dihydro-3H-benz[e]indole], the IC50 [3] is reported as 11 nM, the IC50 [1, 8] is reported as 0.09 nM and the IC50 [4] is reported as 0.2 µM.

For CC(=O)Nc1ccc2[nH]c(C(=O)N3CC(CCl)c4c3cc(O)c3ccccc43)cc2c1 (stereo not shown) [YW-198, 3-[[5-(acetamino)-1H-indol-2'-yl]carbonyl]-1-(chloromethyl)-5-hydroxy-1,2-dihydro-3H-benz[e]indole], the IC50 [1, 8] was 0.2 nM.

Work on CC(=O)Nc1ccc2oc(C(=O)Nc3ccc4[nH]c(C(=O)N5CC(CCl)c6c5cc(O)c5ccccc65)cc4c3)cc2c1 (stereo not shown) [YW-201, 3-[[5-[[5-(Acetamino)-1H-benzofuran-2-ylcarbonyl]amino]-1H-indol-2-yl]carbonyl]-1-(chloromethyl)-5-hydroxy-1,2-dihydro-3H-benz[e]indole] yielded an IC50 [1, 8] of 0.07 nM.

In the case of O=C(C=Cc1cc2ccccc2o1)Nc1ccc2[nH]c(C(=O)N3CC(CCl)c4c3cc(O)c3ccccc43)cc2c1 (stereo not shown) [YW-215, 3-[[5-[(1H-Benzofuran-2-ylacrylyl)amino]-1H-indol-2-yl]carbony 1]-1-(chloromethyl)-5-hydroxy-1,2-dihydro-3H-benz[e]indole], the IC50 ([1]; 48 h incubation) is reported as 0.09 nM.

Work on O=C(Cc1cccs1)N[C@@H]1C(=O)N2C(C(=O)O)=C(COC(=O)Nc3ccc4[nH]c(C(=O)N5CC(CCl)c6c5cc(O)c5ccccc65)cc4c3)C[S+]([O-])[C@H]12 (stereo partly shown) [YW-285] yielded an IC50 [1, 8] of 0.9 nM.

O=C(CCCC[C@@H]1SC[C@@H]2NC(=O)N[C@@H]21)Nc1ccc2[nH]c(C(=O)N3CC(CCl)c4c3cc(O)c3ccccc43)cc2c1 (stereo partly shown) [YW-235, 3-[[5-(Biotin-amino)-1H-indol-2'-yl]carbonyl]-1-(chloromethyl)-5-hydroxy-1,2-dihydro-3H-benz[e]indole] showed an IC50 [1, 8] of 0.7 nM.

Molecule COC(=O)[C@H]1O[C@@H](OCCCC(=O)Nc2ccc3[nH]c(C(=O)Nc4ccc5[nH]c(C(=O)Nc6ccc7[nH]c(C(=O)N8CC(CCl)c9c8cc(O)c8ccccc98)cc7c6)cc5c4)cc3c2)[C@H](OC(C)=O)[C@@H](OC(C)=O)[C@@H]1OC(C)=O (stereo partly drawn) [YW-258, 3-[[5-[[5-[[5-[4-(Methyl 2,3,4-tri-O-acetyl-1-deoxy-b-D-glucuronate)butyramino]-1H-indo 1-2-ylcarbonyl]amino]-1H-indol-2-ylcarbonyl]amino]-1H-indol-2-yl]carbonyl]-1-(chloromethyl)-5-hydroxy-1,2-dihydro-3H-benz[e] indole] has an IC50 [1, 8] of 0.08 nM.

For COc1cccc2c1C(=O)c1c(O)c3c(c(O)c1C2=O)C[C@@](O)(C(=O)CO)C[C@@H]3O[C@H]1C[C@H](N)[C@H](O)[C@H](C)O1 [Doxorubicin, reference compound], the IC50 [3] was 780 nM, the IC50 [1, 8] was 100 nM and the IC50 [4] was 6 µM.

Work on CC(=O)Nc1ccc2[nH]c(C(=O)Nc3ccc4[nH]c(C(=O)N5CC(CCl)c6c5cc(O)c5ccccc65)cc4c3)cc2c1 (stereo not shown) [YW-200, 3-[[5-[[5-(Acetamino)-1H-indol-2-ylcarbonyl]amino]-1H-indol-2-yl]carbonyl]-1-(chloromethyl)-5-hydroxy-1,2-dihydro-3H-benz[e]indole] yielded an IC50 [3] of 7.2 nM.

In the case of Cc1c[nH]c2c1[C@@]13C[C@@H]1CN(C(=O)c1cc4cc(NC(=O)c5cc6ccccc6o5)ccc4[nH]1)C3=CC2=O [U-73975], the delayed death [2] is given as “do not cause delayed death”.

For Cc1c[nH]c2c(O)cc3c(c12)[C@H](CCl)CN3C(=O)c1cc2cc(NC(=O)Nc3ccc4[nH]c(C(=O)N5C[C@@H](CCl)c6c5cc(O)c5[nH]cc(C)c65)cc4c3)ccc2[nH]1 [U-77779], the delayed death [2] is listed as “do not cause delayed death”.

In the case of O=C(CCCO)Nc1ccc2[nH]c(C(=O)Nc3ccc4[nH]c(C(=O)N5CC(CCl)c6c5cc(O)c5ccccc65)cc4c3)cc2c1 (stereo not shown) [YW-254, 3-[[5-[[5-[4-(Hydroxy)butyramino]-1H-indol-2-ylcarbonyl]amino]-1H-indol-2-yl]carbonyl]-1-(chloromethyl)-5-hydroxy-1,2-dihydro-3H-benz[e]indole], the IC50 [1, 8] is reported as 0.1 nM.

For Cn1cc(NC(=O)c2cc(NC(=O)CN=C(N)N)cn2C)cc1C(=O)NCCC(=N)N [netropsin], the therapeutic efficacy [5] is given as “low therapeutic efficacy”.

CC(=O)Nc1ccc2[nH]c(C=CC(=O)N3CC(CCl)c4c3cc(O)c3ccccc43)cc2c1 (stereo not shown) [YW-202, 3-[[5-(acetamino)-1H-indol-2-yl]acrylyl]-1-(chloromethyl)-5-hydroxy-1,2-dihydro-3H-benz[e]indole] showed an IC50 [1, 8] of 0.2 nM.

Work on O=C(CCCO)Nc1ccc2[nH]c(C(=O)N3CC(CCl)c4c3cc(O)c3ccccc43)cc2c1 (stereo not shown) [YW-231, 3-[[5-[(4-Hydroxy)butyramino]-1H-indol-2'-yl]carbonyl]-1-(chloromethyl)-5-hydroxy-1,2-dihydro-3H-benz[e]indole] yielded an IC50 [3] of 4 nM and an IC50 [1, 8] of 0.6 nM.

In the case of COC(=O)c1c(C)[nH]c2c(OC(=O)N3CCN(C)CC3)cc3c(c12)[C@H](CBr)CN3C(=O)c1cc2cc(OC)c(OC)c(OC)c2[nH]1 [KW 2189], the delayed death [2] is listed as “do not cause delayed death”.

In the case of Cn1cc(NC(=O)c2cc(NC(=O)c3cc(NC=O)cn3C)cn2C)cc1C(=O)NCCC(=N)N [distamycin], the therapeutic efficacy [5] is given as “low therapeutic efficacy”.

Work on CCCC(=O)Nc1cc(C=CC(=O)N2CC(CCl)c3c2cc(O)c2ccccc32)n(C)c1 (stereo not shown) [YW-222, 3-(4-Butyramido-1-methyl-2-pyrroleacryloylcarbonyl)-1-(chloromethyl)-5-hydroxy-1,2-dihydro-3H-benz[e]indole] yielded an IC50 [1, 8] of 0.5 nM.

With O=C(CCCO)Nc1ccc2[nH]c(C(=O)Nc3ccc4[nH]c(C(=O)Nc5ccc6[nH]c(C(=O)N7CC(CCl)c8c7cc(O)c7ccccc87)cc6c5)cc4c3)cc2c1 (stereo not shown) [YW-259] the IC50 [1, 8] was 0.09 nM.

In the case of COc1c(O)c2c(c3cc(C(=O)N4CCc5c4c(O)c(OC)c4[nH]c(C(=O)N6CC7CC78C6=CC(=O)c6[nH]cc(C)c68)cc54)[nH]c13)CCN2C(N)=O (stereo not shown) [CC-1065], the delayed death [2] is given as “causes delayed death in experimental animals”, the “antitumor and antimicrobial activity” value [6] is given as “potent antitumor and antimicrobial activity both in vitro and in experimental animals” and the alkylation site ([7]; by its CPI left-hand unit) is given as “alkylates the N3 position of the 3'-adenine”. The “sequence preference of DNA binding” value ([7]; within the minor groove) was 5'-d(A/GNTTA)-3' and 5'-d(AAAAA)-3'.

Cn1cc(N)cc1C(=O)N1CC(CCl)c2c1cc(O)c1ccccc21 (stereo not shown) [YW-284, 3-[(4-Amino-1-methylpyrrole-2-yl)carbonyl]-1-(chloromethyl)-5-hydroxy-1,2-dihydro-3H-benz[e]indole] gave an IC50 [1, 8] of 9 nM.
